For test [1], the system named is target genes of the PPARs. The experiment in a line: Expression of PPARδ target genes in skeletal muscle of the C57Bl6 mouse (compounds 4 and 7), quantitative RT-PCR. It is filed as in vivo. To be noted: C57Bl6 mice; 50 mpk; 14 days. From the text:
The PPARδ agonistic properties of the molecules according to the invention previously measured in vitro should be reflected at the level of the skeletal muscle in overexpression of the target genes directly under the control of the PPARδ receptor: the genes that were investigated in this experiment are the genes coding for PDK4 (enzyme of carbohydrate metabolism), CPT1b (enzyme of lipid metabolism), UCP2 and UCP3 (mitochondrial transporters involved in thermoregulation).
Female C57Bl6 mice were kept under a cycle of light and darkness of 12/12 hours at a constant temperature of 20±3° C. After acclimation for one week, the mice were weighed and put into groups of 6 animals selected so that the distribution of their body weight, of their plasma lipid levels and of total cholesterol determined for the first time before the experiment, is uniform. The test compounds were suspended in carboxymethylcellulose (Sigma C4888) and administered by intragastric force feeding, at a rate of once per day for 14 days at the chosen dose. The animals had free access to water and to food (standard diet). At the end of the experiment, the animals were anesthetized after fasting for 4 hours, a blood sample was taken using anticoagulant (EDTA), then the mice were weighed and euthanased. The plasma was separated by centrifugation at 3000 rev/min for 20 minutes, and the samples were stored at +4° C.
Samples of skeletal muscle tissue were taken and frozen immediately in liquid nitrogen and then stored at −80° C. for later analyses.
The total RNA was extracted from fragments of gastrocnemius skeletal muscle using the RNeasy® Fibrous Tissue kit (Qiagen) following the manufacturer's instructions.
1 μg of total RNA (quantified based on the spectrophotometer reading) was then reverse-transcribed to complementary DNA by reaction for 1 hour at 37° C. in a total volume of 30 μl containing buffer 1× (Invitrogen), 1.5 mM of DTT, 0.18 mM of dNTPs (Promega), 200 ng of pdN6 (Amersham), 30 U of RNase inhibitor (Promega) and 1 μl of MMLV-RT (Invitrogen).
The quantitative PCR experiments were carried out using the MyiQ Single-Color Real-Time PCR Detection System (Biorad, Marnes-la-Coquette, France) and were performed using the iQ SYBR Green Supermix kit following the supplier's recommendations, in 96-well plates, on 5 μl of diluted reverse transcription reaction mixture with a hybridization temperature of 60° C. Primer pairs specific to the genes under investigation were used:
The amount of fluorescence emitted is directly proportional to the amount of complementary DNA present at the start of the reaction and amplified during PCR. For each target investigated, a range is produced by successive dilutions of a pool constituted of a few microliters of various reverse transcription reaction mixtures. The relative expression levels of each target are thus determined using the efficacy curves obtained with the points in the range.
The levels of expression of the genes of interest were then normalized relative to the level of expression of the reference gene 18S (whose specific primers are: […]
The induction factor, i.e. the ratio of the relative signal (induced by the compound according to the invention) to the mean of the relative values of the control group, was then calculated for each sample. The higher this factor, the greater the gene expression activating character of the compound. The final result is represented as the mean of the induction values in each experimental group.

For test [2], the system named is MCP1 secretion in human monocytes (THP1). Briefly: MCP1 secretion by human monocytes stimulated with PMA (ELISA). To be noted: at 1 μm, 24 h. It is filed as cell-based. The protocol: The antiinflammatory effects of the compounds according to the invention were evaluated by measuring the secretion and expression of macrophages chemoattractant protein (MCP1) and of matrix metalloproteinase 9 (MMP9) by monocytes treated with the compounds according to the invention for 24 hours and stimulated with PMA (phorbol 12-myristate 13-acetate, which causes an inflammatory response of the cells). The more the amount of MCP1 secreted is reduced, the greater the inhibitory action of the compounds according to the invention on the inflammatory reaction. […]
The treatment medium is recovered and the concentration of MCP1 is measured using the ELISA kit “Human MCP1 Elisa set” (BD OptEIA; 555179) following the manufacturer's recommendations.
A human antiMCP1 monoclonal antibody is fixed on a plate, then the supernatants, containing the MCP1 secreted by the cells, are distributed. […] A third antibody, conjugated and coupled to a peroxidase enzyme, makes it possible, in the presence of substrate, to initiate an enzymatic reaction, the result of which is a coloration that is proportional to the amount of MCP1 fixed, and can be measured by spectrophotometry. […]
The induction factor, i.e. the ratio of the signal induced by the compound according to the invention to the signal of the control group, was then calculated. […]

Regarding `CC(C)(Oc1ccc(CCC(O)c2ccc(-c3ccc(C(F)(F)F)cc3)s2)c(Cl)c1Cl)C(=O)O` (stereo not shown) [Compound 4, 2-(2,3-dichloro-4-(3-hydroxy-3-(5-(4-(trifluoromethyl)phenyl)thien-2-yl)propyl)phenoxy)-2-methylpropanoic acid], in test [1], the “expression of the gene coding for CPT1b in skeletal muscle” value was “significant increase”, the “expression of the gene coding for PDK4 in skeletal muscle” value is given as “significant increase”, the “expression of the gene coding for UCP2 in skeletal muscle” value is given as “significant increase” and the “expression of the gene coding for UCP3 in skeletal muscle” value is recorded as “significant increase”.
With `CC(C)(Oc1ccc(CCC(OCc2ccccc2)c2ccc(-c3ccc(C(F)(F)F)cc3)s2)c(Cl)c1Cl)C(=O)O` (stereo not shown) [Compound 7, 2-(4-(3-(benzyloxy)-3-(5-(4-(trifluoromethyl)phenyl)thien-2-yl)propyl)-2,3-dichlorophenoxy)-2-methylpropanoic acid], the “secretion of MCP1 in human monocytes” value in test [2] is “significant decrease”. Besides, in test [1], the “expression of the gene coding for CPT1b in skeletal muscle” value is listed as “significant increase”, the “expression of the gene coding for PDK4 in skeletal muscle” value was “significant increase”, the “expression of the gene coding for UCP2 in skeletal muscle” value is on record as “significant increase” and the “expression of the gene coding for UCP3 in skeletal muscle” value is on record as “significant increase”.
Regarding `CC(C)(Oc1ccc(CCC(=O)c2cc(-c3ccc(C(F)(F)F)cc3)cs2)c(Cl)c1Cl)C(=O)O` [Compound 11, 2-(2,3-dichloro-4-(3-oxo-3-(4-(4-(trifluoromethyl)phenyl)thien-2-yl)propyl)phenoxy)-2-methylpropanoic acid], the “secretion of MCP1 in human monocytes” value in test [2] is reported as “significant decrease”.

For the origin of these results see US8088819B2, “Derivatives of substituted 3-phenyl-1-(phenylthienyl)propan-1-ones and of 3-phenyl-1-(phenylfuranyl) propan-1-ones, preparation and use” (priority 2006, dated 2012).
